Reference: ChEMBL document CHEMBL1268914, “5,6,7,8-Tetrahydropyrido[4,3-d]pyrimidines as novel class of potent and highly selective CaMKII inhibitors” (Bioorg Med Chem Lett, 2010)

Columns and labels:
[1] = Inhibition of CAMK2
[2] = Inhibition of PKC
[3] = molecular target: T1, Calcium/calmodulin-dependent protein kinase type IV (Homo sapiens, UniProt Q16566); experiment: Inhibition of CAMK4
T1 sequence (Q16566 whole entry): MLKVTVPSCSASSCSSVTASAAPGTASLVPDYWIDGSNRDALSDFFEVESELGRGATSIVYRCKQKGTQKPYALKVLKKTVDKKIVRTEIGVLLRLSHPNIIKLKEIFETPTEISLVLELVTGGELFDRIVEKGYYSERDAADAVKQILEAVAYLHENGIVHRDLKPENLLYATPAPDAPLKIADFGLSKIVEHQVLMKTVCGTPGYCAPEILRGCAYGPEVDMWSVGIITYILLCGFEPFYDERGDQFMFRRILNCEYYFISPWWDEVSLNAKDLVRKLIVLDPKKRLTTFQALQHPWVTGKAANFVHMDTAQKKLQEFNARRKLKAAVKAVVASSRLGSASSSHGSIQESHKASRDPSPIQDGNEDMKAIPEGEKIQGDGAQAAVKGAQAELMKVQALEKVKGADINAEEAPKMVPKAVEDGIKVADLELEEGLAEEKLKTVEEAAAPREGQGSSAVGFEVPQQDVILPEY

[4] = molecular target: Myosin light chain kinase, smooth muscle (Homo sapiens, UniProt Q15746); experiment: Inhibition of MLCK
[5] = molecular target: RAC-alpha serine/threonine-protein kinase (Homo sapiens, UniProt P31749); experiment: Inhibition of AKT1
[6] = molecular target: Mitogen-activated protein kinase 14 (Homo sapiens, UniProt Q16539); experiment: Inhibition of p38alpha
[7] = Non-competitive inhibition of CAMK2 by Michaelis-Menten plot

Myosin light chain kinase, smooth muscle, sequence (Q15746 whole entry): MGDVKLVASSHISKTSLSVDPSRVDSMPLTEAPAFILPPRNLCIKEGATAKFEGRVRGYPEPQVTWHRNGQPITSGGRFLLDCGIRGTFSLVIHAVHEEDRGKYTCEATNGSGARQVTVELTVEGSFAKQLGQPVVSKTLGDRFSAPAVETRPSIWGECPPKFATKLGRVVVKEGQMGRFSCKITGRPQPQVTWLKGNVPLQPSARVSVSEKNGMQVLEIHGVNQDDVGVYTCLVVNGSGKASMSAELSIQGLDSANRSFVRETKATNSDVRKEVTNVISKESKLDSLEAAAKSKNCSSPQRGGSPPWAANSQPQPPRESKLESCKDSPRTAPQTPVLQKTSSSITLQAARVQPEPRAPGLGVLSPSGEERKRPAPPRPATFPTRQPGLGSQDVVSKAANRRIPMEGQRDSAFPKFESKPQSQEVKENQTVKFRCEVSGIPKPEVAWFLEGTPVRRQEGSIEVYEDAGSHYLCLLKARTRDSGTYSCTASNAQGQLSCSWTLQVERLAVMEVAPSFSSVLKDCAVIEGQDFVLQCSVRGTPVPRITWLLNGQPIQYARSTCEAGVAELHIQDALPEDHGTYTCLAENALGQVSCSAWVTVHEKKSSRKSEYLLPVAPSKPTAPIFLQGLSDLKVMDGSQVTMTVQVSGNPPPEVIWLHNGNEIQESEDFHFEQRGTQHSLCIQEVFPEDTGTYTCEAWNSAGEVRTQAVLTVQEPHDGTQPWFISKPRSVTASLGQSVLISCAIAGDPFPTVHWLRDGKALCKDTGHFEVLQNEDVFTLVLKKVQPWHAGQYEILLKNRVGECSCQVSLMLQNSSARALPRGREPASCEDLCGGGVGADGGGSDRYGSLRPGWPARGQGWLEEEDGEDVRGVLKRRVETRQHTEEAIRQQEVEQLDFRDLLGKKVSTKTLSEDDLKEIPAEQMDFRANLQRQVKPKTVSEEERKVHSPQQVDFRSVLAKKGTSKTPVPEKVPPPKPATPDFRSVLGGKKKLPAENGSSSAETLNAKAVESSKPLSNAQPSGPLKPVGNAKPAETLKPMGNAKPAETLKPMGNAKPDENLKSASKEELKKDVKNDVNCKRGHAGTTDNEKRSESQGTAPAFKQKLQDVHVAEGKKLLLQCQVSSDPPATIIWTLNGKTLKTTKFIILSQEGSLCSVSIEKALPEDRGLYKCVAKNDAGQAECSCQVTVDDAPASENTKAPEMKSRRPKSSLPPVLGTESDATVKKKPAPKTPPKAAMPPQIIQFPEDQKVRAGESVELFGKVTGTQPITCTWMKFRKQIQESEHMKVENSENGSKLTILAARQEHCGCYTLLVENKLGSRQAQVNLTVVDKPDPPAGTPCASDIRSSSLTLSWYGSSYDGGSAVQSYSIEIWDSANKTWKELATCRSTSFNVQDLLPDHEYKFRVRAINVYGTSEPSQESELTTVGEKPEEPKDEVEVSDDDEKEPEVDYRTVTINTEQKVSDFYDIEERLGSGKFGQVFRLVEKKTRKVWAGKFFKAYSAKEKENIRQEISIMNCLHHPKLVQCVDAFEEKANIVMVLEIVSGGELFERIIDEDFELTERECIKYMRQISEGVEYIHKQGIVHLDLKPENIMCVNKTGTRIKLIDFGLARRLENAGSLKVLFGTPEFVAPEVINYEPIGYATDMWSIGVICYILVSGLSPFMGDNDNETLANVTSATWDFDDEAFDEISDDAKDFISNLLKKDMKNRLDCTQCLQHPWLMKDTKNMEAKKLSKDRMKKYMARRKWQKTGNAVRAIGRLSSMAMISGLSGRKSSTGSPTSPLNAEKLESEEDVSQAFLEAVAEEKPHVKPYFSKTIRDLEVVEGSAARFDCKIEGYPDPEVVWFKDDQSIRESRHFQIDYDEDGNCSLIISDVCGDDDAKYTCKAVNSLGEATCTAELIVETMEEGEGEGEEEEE
RAC-alpha serine/threonine-protein kinase, sequence (P31749 whole entry): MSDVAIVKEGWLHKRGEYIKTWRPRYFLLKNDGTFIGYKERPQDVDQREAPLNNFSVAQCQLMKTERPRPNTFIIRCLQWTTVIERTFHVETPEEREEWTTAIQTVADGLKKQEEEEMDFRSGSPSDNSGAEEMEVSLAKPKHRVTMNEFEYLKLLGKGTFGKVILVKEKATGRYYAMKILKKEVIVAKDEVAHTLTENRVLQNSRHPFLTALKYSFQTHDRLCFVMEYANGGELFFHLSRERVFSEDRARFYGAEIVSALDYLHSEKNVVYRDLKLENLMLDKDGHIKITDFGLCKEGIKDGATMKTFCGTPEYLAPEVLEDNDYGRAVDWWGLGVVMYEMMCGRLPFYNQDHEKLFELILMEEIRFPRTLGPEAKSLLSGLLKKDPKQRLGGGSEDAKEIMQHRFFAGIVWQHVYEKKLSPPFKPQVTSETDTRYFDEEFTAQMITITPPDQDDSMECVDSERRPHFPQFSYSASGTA
Mitogen-activated protein kinase 14, sequence (Q16539 whole entry): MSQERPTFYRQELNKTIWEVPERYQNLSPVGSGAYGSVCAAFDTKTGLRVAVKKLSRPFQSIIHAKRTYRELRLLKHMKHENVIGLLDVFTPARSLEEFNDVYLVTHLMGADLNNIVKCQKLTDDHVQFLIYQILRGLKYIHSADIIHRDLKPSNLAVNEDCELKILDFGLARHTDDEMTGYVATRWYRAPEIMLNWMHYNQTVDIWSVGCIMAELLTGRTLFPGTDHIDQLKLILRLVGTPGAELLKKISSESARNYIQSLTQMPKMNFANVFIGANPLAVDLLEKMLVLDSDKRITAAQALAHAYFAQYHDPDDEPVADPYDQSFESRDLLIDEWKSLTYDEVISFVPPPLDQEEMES

Row | Structure (SMILES) | IC50 [1] [µM] | also measured
1 | CS(=O)(=O)Nc1ccnc(NCCc2ccccc2)n1 | 60 | –
2 | Cc1cccc(S(=O)(=O)Nc2nc(NCCc3ccccc3)nc3c2CN(Cc2ccccc2)CC3)c1 | 2.4 | –
3 | Cc1ccc(S(=O)(=O)Nc2nc(NCCc3ccccc3)nc3c2CN(Cc2ccccc2)CC3)cc1 | 2.7 | –
4 | COc1ccc(S(=O)(=O)Nc2nc(NCCc3ccccc3)nc3c2CN(Cc2ccccc2)CC3)cc1 | 3.2 | –
5 | O=S(=O)(Nc1ccnc(NCCc2ccccc2)n1)c1ccc(Cl)cc1 | 11 | IC50 [4]: 51 µM
6 | O=S(=O)(Cc1ccccc1)Nc1ccnc(NCCc2ccccc2)n1 | 27 | –
7 | O=S(=O)(Nc1nc(NCCc2ccccc2)nc2c1CCCC2)c1ccc(Cl)cc1 | 60 | –
8 | O=S(=O)(Nc1nc(NCCc2ccccc2)nc2c1CN(Cc1ccccc1)CC2)c1ccccc1 | 9.7 | –
9 | O=S(=O)(Nc1nc(NCCc2ccccc2)nc2c1CN(Cc1ccccc1)CC2)c1ccc(Cl)cc1 | 3.2 | –
10 | CN1CCc2nc(NCCc3ccccc3)nc(NS(=O)(=O)c3ccccc3)c2C1 | 10 | –
11 | CN(c1nc(NCCc2ccccc2)nc2c1CN(Cc1ccccc1)CC2)S(=O)(=O)c1ccccc1 | 9.3 | –
12 | CCCN(c1nc(NCCc2ccccc2)nc2c1CN(Cc1ccccc1)CC2)S(=O)(=O)c1ccccc1 | > 30 | –
13 | O=S(=O)(Nc1nc(NCCc2ccccc2)nc2c1CN(Cc1ccccc1)CC2)c1cccc2ccccc12 | 3.3 | –

Now those with a lower IC50 [1], led by results:

Row | IC50 [1] [µM] | Structure (SMILES) | also measured
14 | 1.8 | O=S(=O)(Nc1nc(OCCc2ccccc2)nc2c1CN(Cc1ccccc1)CC2)c1ccc2ccccc2c1 | –
15 | 0.53 | Cc1ccccc1S(=O)(=O)Nc1nc(NCCc2ccccc2)nc2c1CN(Cc1ccccc1)CC2 | –
16 | 0.063 | Cc1c(Cl)cccc1S(=O)(=O)Nc1nc(NCCc2ccccc2)nc2c1CN(Cc1ccccc1)CC2 | IC50 [2]: 21 µM; IC50 [3]: > 60 µM; IC50 [4]: 36 µM; IC50 [5]: 30 µM; IC50 [6]: 11 µM
17 | 0.76 | Cc1ccc(S(=O)(=O)Nc2nc(NCCc3ccccc3)nc3c2CN(Cc2ccccc2)CC3)cc1Cl | –
18 | 0.92 | O=S(=O)(Nc1nc(NCCc2ccccc2)nc2c1CN(Cc1ccccc1)CC2)c1ccccc1Cl | –
19 | 0.42 | O=S(=O)(Nc1nc(NCCc2ccccc2)nc2c1CN(Cc1ccccc1)CC2)c1cccc(Cl)c1 | –
20 | 1 | O=S(=O)(Nc1nc(NCCc2ccccc2)nc2c1CN(Cc1ccccc1)CC2)c1cccc(Cl)c1Cl | –
21 | 0.2 | O=S(=O)(Nc1nc(NCCc2ccccc2)nc2c1CN(Cc1ccccc1)CC2)c1ccc(Cl)c(Cl)c1 | –
22 | 0.16 | O=S(=O)(Nc1nc(NCCc2ccccc2)nc2c1CN(Cc1ccccc1)CC2)c1ccc2ccccc2c1 | Ki [7]: 0.926 µM; IC50 [2]: 22 µM; IC50 [3]: > 60 µM; IC50 [4]: 0.9 µM; IC50 [5]: 8.5 µM; IC50 [6]: 11 µM
23 | 1.6 | COc1ccc(S(=O)(=O)N(CCO)c2ccccc2CN(C)C/C=C/c2ccc(Cl)cc2)cc1 | –
